Test results: patent publication US8207293B2, “Peptides derived from maurocalcine used as vectors for intracellular addressing of molecules of interest” (Commissariat a l'Energie Atomique, priority 2004, dated 2012)
Where two headings read alike, the source gives them in different places.

Assays:
[1] = tested on: HEK293 cells; experiment: Flow cytometry analysis of cellular penetration of complexes (trypsin/heparin treatment); format: cell-based, human; settings: for penetrating activity compared with maurocalcine (factor): biotinylated variant/Strept-Cy3 complexes, FIG. 5
Protocol: The cells are incubated with maurocalcine and the derived peptides, biotinylated and complexed with […], at the final concentration of 100 nM in PBS, in the dark and at ambient temperature for 1 hour. After 2 washes in PBS (PBS, in mM: […], 6.84 Na2HPO4, 3.16 NaH2PO4, pH 7.2), and the cells were treated with trypsin (1 mg/ml, INVITROGEN), for 10 min at 37° C., in order to remove the extracellular complexes and the plasma-membrane-bound complexes. After the incubation with trypsin, the cell suspension was centrifuged at 500 g and the cells were resuspended in PBS containing 1 μg/ml of propidium iodide (SIGMA). […] The analysis was carried out on live cells, using a flow cytometer (FACScalibur, BECTON DICKINSON). The data were recorded and analyzed using appropriate software (CellQuest, BD BIOSCIENCES). The live cells were sorted according to their size and their granulosity (forward/side scattering), over a total of 10 000 events.
The analysis is carried out as described in Example 1. For the heparin treatment experiments, the complexes were prepared in a heparin solution (bovine intestine heparin, sodium salt, SIGMA) and the cells were washed twice with the heparin solution, before and after incubation with the complexes prepared in the same heparin solution.
The cellular penetration was analyzed by flow cytometry, on cells incubated with the MCab/Strept-Cy3 complexes, and then treated with trypsin, so as to remove the complexes bound to the plasma membrane by means of lipids, specific receptors or heparan sulfate glycosaminoglycan (HPSG). It has been shown that this method makes it possible to effectively study the entry of penetrating peptides into cells (Richard et al., J. Biol. Chem., 2003, 278, 585-590).

[2] = target: T1, RyR1 receptor (Oryctolagus cuniculus, UniProt P11716); experiment: Tritiated ryanodine binding assay on heavy sarcoplasmic reticulum vesicles; settings: biotinylated variants complexed with Strept-Cy3, increasing concentrations
T1 construct: from tissue; host or cells: heavy sarcoplasmic reticulum vesicles (skeletal muscle implied)
T1 sequence (P11716 whole entry): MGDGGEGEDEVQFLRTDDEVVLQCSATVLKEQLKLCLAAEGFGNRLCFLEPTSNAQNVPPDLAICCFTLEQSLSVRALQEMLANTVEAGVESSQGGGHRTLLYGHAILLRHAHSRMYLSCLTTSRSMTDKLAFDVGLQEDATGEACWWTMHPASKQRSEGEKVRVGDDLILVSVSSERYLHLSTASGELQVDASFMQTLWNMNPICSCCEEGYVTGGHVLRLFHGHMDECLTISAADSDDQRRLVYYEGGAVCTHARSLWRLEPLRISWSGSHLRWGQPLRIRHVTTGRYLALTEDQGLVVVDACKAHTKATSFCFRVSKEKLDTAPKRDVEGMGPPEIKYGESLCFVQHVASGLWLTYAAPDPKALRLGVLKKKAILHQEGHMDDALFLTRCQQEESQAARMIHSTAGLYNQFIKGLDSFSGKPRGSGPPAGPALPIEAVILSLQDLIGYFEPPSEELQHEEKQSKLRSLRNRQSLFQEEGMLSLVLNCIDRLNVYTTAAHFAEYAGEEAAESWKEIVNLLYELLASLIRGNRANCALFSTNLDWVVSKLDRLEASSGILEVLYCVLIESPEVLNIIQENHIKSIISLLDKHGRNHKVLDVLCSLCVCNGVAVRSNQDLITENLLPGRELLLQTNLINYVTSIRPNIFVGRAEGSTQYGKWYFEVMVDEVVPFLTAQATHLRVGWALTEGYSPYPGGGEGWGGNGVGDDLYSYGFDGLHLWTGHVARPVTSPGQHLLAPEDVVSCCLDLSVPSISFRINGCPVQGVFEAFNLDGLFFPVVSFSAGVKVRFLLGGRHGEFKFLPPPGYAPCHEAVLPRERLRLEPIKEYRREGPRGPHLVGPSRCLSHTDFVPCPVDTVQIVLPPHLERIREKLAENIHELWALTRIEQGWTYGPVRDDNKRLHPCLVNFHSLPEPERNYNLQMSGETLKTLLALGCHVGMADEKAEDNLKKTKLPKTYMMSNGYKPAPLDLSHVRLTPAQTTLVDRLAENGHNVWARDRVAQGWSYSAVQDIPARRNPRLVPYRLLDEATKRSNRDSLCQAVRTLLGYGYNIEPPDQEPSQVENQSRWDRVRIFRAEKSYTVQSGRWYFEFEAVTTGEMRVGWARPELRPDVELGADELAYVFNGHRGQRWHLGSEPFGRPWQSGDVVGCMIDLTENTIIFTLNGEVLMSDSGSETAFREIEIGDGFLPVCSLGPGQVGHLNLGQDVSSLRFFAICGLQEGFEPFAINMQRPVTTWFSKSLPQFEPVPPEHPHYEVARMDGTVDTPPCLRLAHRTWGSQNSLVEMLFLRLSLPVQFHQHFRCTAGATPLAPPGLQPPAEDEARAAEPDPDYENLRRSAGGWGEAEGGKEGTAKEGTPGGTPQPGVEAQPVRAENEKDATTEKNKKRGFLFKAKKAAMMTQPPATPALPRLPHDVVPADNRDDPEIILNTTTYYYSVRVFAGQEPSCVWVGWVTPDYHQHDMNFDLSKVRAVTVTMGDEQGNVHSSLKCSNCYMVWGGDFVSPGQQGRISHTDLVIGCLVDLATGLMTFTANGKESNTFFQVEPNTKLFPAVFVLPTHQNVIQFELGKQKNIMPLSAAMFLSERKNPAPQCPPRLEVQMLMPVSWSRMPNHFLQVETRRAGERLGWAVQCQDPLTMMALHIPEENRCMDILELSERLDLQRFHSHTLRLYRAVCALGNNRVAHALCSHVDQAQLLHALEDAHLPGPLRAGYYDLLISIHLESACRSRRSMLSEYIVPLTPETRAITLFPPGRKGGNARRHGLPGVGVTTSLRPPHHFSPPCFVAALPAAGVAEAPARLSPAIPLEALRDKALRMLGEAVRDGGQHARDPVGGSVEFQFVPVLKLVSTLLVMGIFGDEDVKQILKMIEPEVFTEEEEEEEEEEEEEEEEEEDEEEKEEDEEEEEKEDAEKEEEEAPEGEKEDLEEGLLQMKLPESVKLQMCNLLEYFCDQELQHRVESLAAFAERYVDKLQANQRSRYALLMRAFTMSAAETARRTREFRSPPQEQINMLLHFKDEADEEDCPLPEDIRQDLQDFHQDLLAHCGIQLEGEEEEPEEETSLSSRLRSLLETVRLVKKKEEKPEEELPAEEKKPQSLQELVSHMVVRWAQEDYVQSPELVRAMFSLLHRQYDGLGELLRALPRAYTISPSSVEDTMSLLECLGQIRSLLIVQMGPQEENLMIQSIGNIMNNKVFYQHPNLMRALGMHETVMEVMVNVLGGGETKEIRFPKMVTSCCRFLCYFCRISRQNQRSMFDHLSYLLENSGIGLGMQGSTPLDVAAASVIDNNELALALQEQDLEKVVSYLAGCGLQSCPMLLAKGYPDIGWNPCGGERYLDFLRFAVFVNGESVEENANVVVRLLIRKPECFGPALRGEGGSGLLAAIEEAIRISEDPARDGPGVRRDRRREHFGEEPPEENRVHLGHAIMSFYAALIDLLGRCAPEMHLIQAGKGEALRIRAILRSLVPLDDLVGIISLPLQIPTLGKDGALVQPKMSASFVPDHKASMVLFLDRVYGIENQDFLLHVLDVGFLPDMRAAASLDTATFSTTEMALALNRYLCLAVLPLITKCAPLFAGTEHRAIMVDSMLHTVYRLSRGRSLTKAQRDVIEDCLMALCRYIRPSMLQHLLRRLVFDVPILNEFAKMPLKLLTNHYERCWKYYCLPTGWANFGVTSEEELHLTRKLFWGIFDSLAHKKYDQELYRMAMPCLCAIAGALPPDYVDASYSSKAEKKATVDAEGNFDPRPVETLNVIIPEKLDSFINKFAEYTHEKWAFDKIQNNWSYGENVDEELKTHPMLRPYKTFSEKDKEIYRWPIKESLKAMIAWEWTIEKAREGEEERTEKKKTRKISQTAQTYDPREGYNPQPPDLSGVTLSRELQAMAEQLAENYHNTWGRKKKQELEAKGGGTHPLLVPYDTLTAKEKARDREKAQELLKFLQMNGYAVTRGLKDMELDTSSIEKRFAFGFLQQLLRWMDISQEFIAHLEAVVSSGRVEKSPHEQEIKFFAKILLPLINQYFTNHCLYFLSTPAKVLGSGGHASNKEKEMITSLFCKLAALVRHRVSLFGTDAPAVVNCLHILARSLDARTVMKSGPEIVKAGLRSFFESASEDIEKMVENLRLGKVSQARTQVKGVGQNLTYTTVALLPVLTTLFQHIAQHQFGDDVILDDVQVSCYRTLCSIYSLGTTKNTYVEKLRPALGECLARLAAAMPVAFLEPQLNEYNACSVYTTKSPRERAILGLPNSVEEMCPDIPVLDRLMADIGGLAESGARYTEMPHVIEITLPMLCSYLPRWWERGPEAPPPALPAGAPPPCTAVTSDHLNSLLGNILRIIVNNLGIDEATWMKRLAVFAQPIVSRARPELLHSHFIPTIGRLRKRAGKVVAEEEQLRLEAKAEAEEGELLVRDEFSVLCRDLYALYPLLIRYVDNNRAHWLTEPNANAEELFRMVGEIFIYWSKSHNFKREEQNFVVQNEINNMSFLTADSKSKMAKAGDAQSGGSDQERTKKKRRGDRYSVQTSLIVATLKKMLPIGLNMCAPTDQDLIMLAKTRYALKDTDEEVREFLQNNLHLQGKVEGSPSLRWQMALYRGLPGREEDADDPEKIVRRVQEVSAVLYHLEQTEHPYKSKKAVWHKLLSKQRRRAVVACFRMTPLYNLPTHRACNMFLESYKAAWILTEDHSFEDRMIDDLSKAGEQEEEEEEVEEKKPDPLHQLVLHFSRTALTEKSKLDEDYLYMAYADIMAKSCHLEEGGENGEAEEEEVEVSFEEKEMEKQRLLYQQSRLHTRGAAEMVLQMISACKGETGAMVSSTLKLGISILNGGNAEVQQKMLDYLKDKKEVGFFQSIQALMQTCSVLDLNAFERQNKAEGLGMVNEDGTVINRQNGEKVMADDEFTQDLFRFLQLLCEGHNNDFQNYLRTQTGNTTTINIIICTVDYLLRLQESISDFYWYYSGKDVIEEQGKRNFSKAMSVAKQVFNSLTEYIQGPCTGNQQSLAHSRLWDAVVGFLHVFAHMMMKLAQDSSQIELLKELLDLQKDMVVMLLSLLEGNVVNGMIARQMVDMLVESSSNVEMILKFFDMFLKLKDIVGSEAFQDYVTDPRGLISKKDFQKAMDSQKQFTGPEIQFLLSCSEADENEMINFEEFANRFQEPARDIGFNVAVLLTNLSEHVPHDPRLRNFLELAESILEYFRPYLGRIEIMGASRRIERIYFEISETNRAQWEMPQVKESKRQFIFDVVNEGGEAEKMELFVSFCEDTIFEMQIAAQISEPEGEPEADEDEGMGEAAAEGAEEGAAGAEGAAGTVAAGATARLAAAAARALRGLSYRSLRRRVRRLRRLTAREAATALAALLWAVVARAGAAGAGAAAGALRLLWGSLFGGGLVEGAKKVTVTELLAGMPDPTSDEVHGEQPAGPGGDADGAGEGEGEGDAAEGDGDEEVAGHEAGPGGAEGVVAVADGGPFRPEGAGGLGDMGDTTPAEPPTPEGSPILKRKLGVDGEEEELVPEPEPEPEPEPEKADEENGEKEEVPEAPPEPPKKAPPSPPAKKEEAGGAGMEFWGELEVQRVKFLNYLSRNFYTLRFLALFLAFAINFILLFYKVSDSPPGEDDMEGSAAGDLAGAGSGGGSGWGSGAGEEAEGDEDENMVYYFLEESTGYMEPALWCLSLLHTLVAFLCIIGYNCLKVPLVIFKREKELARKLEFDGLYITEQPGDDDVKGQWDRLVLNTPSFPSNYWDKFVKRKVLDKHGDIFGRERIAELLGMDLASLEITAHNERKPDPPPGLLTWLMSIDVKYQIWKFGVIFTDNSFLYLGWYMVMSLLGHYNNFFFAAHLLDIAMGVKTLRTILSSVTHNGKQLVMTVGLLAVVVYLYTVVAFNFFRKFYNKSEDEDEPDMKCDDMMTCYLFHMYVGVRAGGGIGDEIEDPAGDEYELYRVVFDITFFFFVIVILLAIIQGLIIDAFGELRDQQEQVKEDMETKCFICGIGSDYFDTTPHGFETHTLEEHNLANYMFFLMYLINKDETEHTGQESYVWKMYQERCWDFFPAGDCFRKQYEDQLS
Protocol: The heavy sarcoplasmic reticulum vesicles are prepared according to the method of Kim et al. (J. Biol. Chem., 1983, 258, 9662-9668) modified as described in Marty et al. (J. Biol. Chem., 2000, 275, 8206-8212). The protein concentration is measured by the Biuret method.
The heavy sarcoplasmic reticulum vesicles (1 mg/ml) are incubated at 37° C. for 2 hours and 30 min, in reaction buffer comprising 5 nM [^3H]-ryanodine, 150 mM NaCl, 2 mM EGTA, 2 mM Ca^2+ (pCa=5) and 20 mM Hepes, pH 7.4. Maurocalcine, the maurocalcine-derived peptides and their biotinylated derivatives are added before the addition of the heavy sarcoplasmic reticulum vesicles. The [^3H]-ryanodine bound to the heavy sarcoplasmic vesicles is measured by filtration through Whatmann GF/B filters, followed by three washes with 5 ml of ice-cold washing buffer (150 mM NaCl, 20 mM Hepes, pH 7.4). The [^3H]-ryanodine retained on the filters is measured by liquid scintillation. The nonspecific binding is measured in the presence of […] ryanodine (20 μM). The results are given in the form of means±standard deviation. Each experiment is carried out in triplicate and repeated at least twice.

[3] = tested on: HEK293 cells; experiment: Cell penetration and subcellular distribution of complexes in HEK293 cells, confocal microscopy; format: cell-based, human; settings: 333 nM, 30 min
Protocol: Soluble streptavidin-cyanin 3 and streptavidin-cyanin 5 (Strept-Cy^3 and Strept-Cy^5, AMERSHAM) were mixed with 4 molar equivalents of biotinylated maurocalcine (1 mM) or biotinylated maurocalcine-derived peptide, in phosphate buffer (PBS, in mM: 136 NaCl, 1.47 Na2HPO4, 2.6 KCl, 1 CaCl2, 0.5 MgCl2, pH 7.2), for 2 hours at 37° C. and in the dark.
The human embryonic kidney cells (HEK 293 line, ATCC) are divided before confluence, by treatment with trypsin (1%), and are maintained in DMEM medium (INVITROGEN) containing 10% of inactivated fetal calf serum (INVITROGEN) and 1% of penicillin/streptomycin (INVITROGEN), in a CO2 incubator (5%). The culture medium is changed every 2 days.
The cells were incubated with maurocalcine and the derived peptides, biotinylated and complexed with streptavidin-cyanin 3 or with streptavidin-cyanin 5, […], in the dark and at ambient temperature, for 30 minutes to 1 hour. After 3 washes in PBS, the cells are fixed at ambient temperature, in a paraformaldehyde solution (4%), for 10 min, in the dark, washed in PBS and incubated for one hour with FITC-conjugated concanavalin (MOLECULAR PROBES, 5 μg/ml) in order to label the plasma membrane, and TO-PRO-3 iodide (MOLECULAR PROBES, 1 μM) in order to label the nucleus. In order to label the cytoskeleton, the cells were fixed and permeabilized with ice-cold methanol, for 10 min, washed twice in PBS and incubated with a mouse anti-alpha-tubulin antibody (1:1000, SIGMA), for 2 hours. After two washes in PBS, the cells were incubated for one hour with an anti-mouse IgG secondary antibody conjugated to Alexa 488 (1:1000, MOLECULAR PROBES). The cultures were then mounted in Vectashield mounting medium (VECTOR LABORATORIES). Preparations were observed by laser scanning confocal microscopy, using a Leica TCS-SP2 control system. The Alexa-488 and Cy3 or propidium iodide (PI) fluorescences were excited sequentially and then recorded. The Cy3 fluorescence was excited using a 543 nm helium-neon laser beam and the fluorescence emission was recorded between 554 nm and 625 nm. The images were introduced into Adobe Photoshop 7.0.

[4] = tested on: live cells; experiment: Flow cytometry analysis of cellular penetration at increasing extracellular KCl (membrane potential); format: cell-based
Protocol: The MCab-Strept-Cy^5 complexes were prepared in solutions containing various NaCl/KCl ratios (composition in mM: 145 to 5 NaCl, 5 to 145 KCl, 2.5 CaCl2, 1.2 MgCl2, 10 glucose, 10 HEPES, pH 7.4).
The cells were washed twice with the NaCl/KCl solution used to prepare the complexes, and then incubated with maurocalcine and the derived peptides, which are biotinylated and complexed with streptavidin-cyanin 3 (MCab-Strept-Cy^3 complexes), at the final concentration of 100 nM in the same NaCl/KCl solution, in the dark and at ambient temperature for 1 hour. After 2 washes in the same NaCl/KCl buffer, the cyanin 3 fluorescence was analyzed on live cells, using a flow cytometer (FACScalibur, BECTON DICKINSON). The data were recorded and analyzed using appropriate software (CellQuest, BD BIOSCIENCES). The live cells were sorted according to their size and their granulosity (forward/side scattering), over a total of 10 000 events.

[5] = Surface pressure of monomolecular lipid films (DPPC); settings: 1 μM
Protocol: (§1) The disialoganglioside NeuAcα2-8NeuAca2-3Galb1-aGlcb1-Cer (GD3) and dipalmitoylphosphatidylcholine (DPPC) were provided respectively by MATREYA INC and SIGMA.
The surface pressure was measured using an automatic microtensiometer (μ THROUGH SX, KIBRON INC.). The apparatus makes it possible to record kinetics of interaction of a ligand with a monomolecular film using a series of appropriate Teflon probes. All the experiments were carried out in a controlled atmosphere at 20±1. The molecular films of the lipids indicated were deposited onto an aqueous phase of ultrapure water (800 μl), using hexane:chloroform:ethanol (11:5:4, v/v/v), as described previously (Mahfoud et al., J. Biol. Chem., 2002, 277, 11292-11296). After spreading of the film, a minimum period of elapsed time of 5 min was observed, in order to allow the solvent to evaporate off. In order to measure the interaction of MCa with the lipid monolayers, various concentrations of peptides were injected into the monomolecular film with a […] Hamilton syringe and the resulting increase in pressure, produced by the incorporation of the peptide, was recorded until equilibrium was reached (maximum increase in surface pressure generally reached after an incubation of 100 to 150 min). […] The results were analyzed with Filmware 2.5 software (KIBRON INC.). […]

[6] = Surface pressure of monomolecular lipid films (GD3)
Protocol: as §1
The surface pressure was measured using an automatic microtensiometer (μ THROUGH SX, KIBRON INC.). The apparatus makes it possible to record kinetics of interaction of a ligand with a monomolecular film using a series of appropriate Teflon probes. All the experiments were carried out in a controlled atmosphere at 20±1. The molecular films of the lipids indicated were deposited onto an aqueous phase of ultrapure water (800 μl), using hexane:chloroform:ethanol (11:5:4, v/v/v), as described previously (Mahfoud et al., J. Biol. Chem., 2002, 277, 11292-11296). After spreading of the film, a minimum period of elapsed time of 5 min was observed, in order to allow the solvent to evaporate off. In order to measure the interaction of MCa with the lipid monolayers, various concentrations of peptides were injected into the monomolecular film with a […] Hamilton syringe and the resulting increase in pressure, produced by the incorporation of the peptide, was recorded until equilibrium was reached (maximum increase in surface pressure generally reached after an incubation of 100 to 150 min). For the dose-dependent interaction between MCa and GD3, the monomolecular films of GD3 were prepared at an initial surface pressure (pi) of 10 mN·m^−1. The results were analyzed with Filmware 2.5 software (KIBRON INC.). The system for measuring the surface pressures was accurate to 0.25 mN·m^−1 under the experimental conditions.

GDCLPHAKLCKENKDCCSKKCKRRGTNIEKRCR (maurocalcine L7A mutant)
penetrating activity compared with maurocalcine (factor) [1]: 5 | activity on the RyR1 receptor (stimulation of [3H]-ryanodine binding) [2]: less active on the RyR1 receptor than MCab/Strept-Cy3 | transduction of HEK293 cell cultures by biotinylated variant/Strept-Cy3 complexes [3]: effectively transduce cell cultures

GDCLPHLKLCKENKDCCSKKCKRAGTNIEKRCR (maurocalcine R24A mutant)
penetrating activity compared with maurocalcine (factor) [1]: comparable to, or even slightly less than, maurocalcine | activity on the RyR1 receptor (stimulation of [3H]-ryanodine binding) [2]: inactive | transduction of HEK293 cell cultures by biotinylated variant/Strept-Cy3 complexes [3]: effectively transduce cell cultures

GDCLPHLKLCKENKDCCSKKCKRRGTNIEKRCR [maurocalcine]
lowest concentration at which penetration into the cells occurs ([1]; biotinylated peptide/Strept-Cy3 complexes, dose-response): 10 nM | limitation of penetration by depolarization (increase in extracellular KCl) [4]: approximately 50% | change in surface pressure of the DPPC film [5]: no significant change in surface pressure | concentration at which interaction with GD3 is detectable [6]: 100 nM | concentration at which interaction with GD3 reaches a maximum [6]: 750 nM | maximum increase in surface pressure a (kinetics fit) ([6]; 1 μM MCa, GD3 film): 22.9 mN·m^−1 | time constant for the change in surface pressure b ([6]; 1 μM MCa, GD3 film): 0.0003 s⁻¹ | maximum increase in surface pressure a (dose-response fit) ([6]; GD3 film, as a function of MCa concentration): 22.1 mN·m^−1 | EC50 ([6]; read-out: concentration that produces 50% of the maximum effect on GD3): 500 nM | EC50 ([6]; sigmoidal fit, FIG. 11B, read-out: concentration X0 giving 50% of the maximum effect on GD3 surface pressure): 490 nM
